“And” between values parts separate entries of the source, which are not always exact repeats. Identical values can stand only once.
Key:
[1] = Nitric oxide uptake / NO content by mass spectrometry; settings: 100 ppm nitric oxide in helium, 60 min equilibration
Procedure: Some samples (1 ml each) were left open to air in 2.0 ml tubes for 30 minutes prior to dissolved gas analysis. In other experiments the emulsion was placed into a 15 ml tube. The headspace was filled with the gas under study and the gas was allowed to enter the emulsion by equilibration over 60 minutes with the tube on its side to increase the gas emulsion interaction. 50 μL drawn from each of these fluids were injected into a Sievers purge vessel at 37° C. containing 36 ml of a mildly acidic solution consisting of 32 ml of 1M HCL and 4 ml of 0.5M ascorbic acid. […] Signals generated at m/z=32 upon injection of RL and lipid emulsion samples were integrated using Peakfit and compared to those obtained with distilled water.
In another set of experiments we measured the uptake of nitric oxide by a commercially available 20% soybean oil emulsion, Liposyn III 20%. This emulsion contains 20% soybean oil, 1.2% egg phospholipids and 2.5% glycerin in water. Using NaOH pH was adjusted to 8.3. […] 100 ppm nitric oxide in helium was used to purge the hesdspace for two minutes taking care not to bubble the fluid. For sixty minutes the sample was allowed to reach gas-liquid equilibrium with the tube placed on its side to maximize gas-emulsion contact.
The uptake of NO and O2 by a commercial 20% soybean oil emulsion, Liposyn, was measured using mass spectrometry. […] To approximate field conditions, no warming or respiratory support was provided. Next, 55% of blood volume was removed within 2 minutes. […] The time of clinical death was defined as the cessation of respiration. […] In 5 mice a volume of Ringer's lactate equal to the volume of blood removed was administered via the internal jugular vein over 2 minutes immediately after the loss of chest wall movement. […] In 6 mice a volume of Ringer's lactate equal to the volume of blood removed was administered via the carotid artery over 2 minutes. […] In the next set of experiments, infusing Ringers' lactate was delayed for 3 minutes. […] A volume of emulsion equal to the volume of blood that had been removed was infused.

[2] = 1 atm; from The Engineering Toolbox; cited from earlier work
[3] = published value; cited from earlier work

Molecule	NO Content, Mean [1]	NO Content, single samples [1]	Oxygen Content at 25° C. and Sea level Pressure [2]	oxygen release time [3]
O [Water]	1.77 mol/L	2.29 mol/L and 1.52 mol/L and 1.63 mol/L and 1.72 mol/L and 1.69 mol/L	8.3 mg/L	–
hemoglobin	–	–	–	17.5 ms

— US20190015327A1, “COMPOSITIONS AND METHODS FOR TREATING CONDITIONS RELATED TO LACK OF BLOOD SUPPLY, SHOCK AND NEURONAL INJURIES” (VIVACELLE BIO, INC., priority 2015, published 2019)
